Measured values published in patent US9375006B2, “5- halogenopyrazole benzofuranyl carboxamides” (BAYER CROPSCIENCE AG, priority 2012, dated 2016).

Key:
[1] = test system: Fusarium nivale (var. majus); assay: Fusarium nivale (var. majus) test (wheat) / preventive; type: in vivo; settings: 500 ppm of active ingredient, evaluated 5 days after inoculation
Description: Solvent: 49 parts by weight of N,N-dimethylacetamide Emulsifier: 1 part by weight of alkylaryl polyglycol ether […] To test for preventive activity, young plants are sprayed with the preparation of active compound or active compound combination at the stated rate of application. After the spray coating has been dried, the plants are slightly injured by using a sandblast and afterwards they are sprayed with a conidia suspension of Fusarium nivale (var. majus). The plants are placed in the greenhouse under a translucent incubation cabinet at a temperature of approximately 10° C. and a relative atmospheric humidity of approximately 100%.

Phakopsora pachyrhizi = assay: In vivo Phakopsora test (soybeans) / preventive; settings: 10 ppm of active ingredient, evaluated 7 days after inoculation
Puccinia recondita = assay: In vivo preventive test on Puccinia recondita (brown rust on wheat); settings: 500 ppm, wheat plants, preventive spray, grading 12 days after contamination
Description: (§1) The active ingredients tested are prepared by homogenization in a mixture of acetone/tween/DMSO, and then diluted with water to obtain the desired active material concentration.
Wheat plants (“Scipion” variety), sown in starter cups on a 50/50 peat soil-pozzolana substrate and grown at 22° C., are treated at the 1-leaf stage (10 cm height) by spraying with the active ingredient prepared as described above. Plants, used as controls, are treated with the mixture of acetone/tween/DMSO/water not containing the active material.
(§2) After 24 hours, the plants are contaminated by spraying the leaves with an aqueous suspension of Puccinia condita spores (100 000 spores per ml). The spores are collected from an infected plant and are suspended in water containing 2.5 ml/l of Tween 80 at 10%. The contaminated wheat plants are incubated for 24 hours at 20° C. and at 100% relative humidity, and then for 10 days at 20° C. and at 70-80% relative humidity.
(§3) Grading (% of efficacy) is carried out 12 days after the contamination, in comparison with the control plants.

Septoria tritici = assay: In vivo preventive test on Septoria tritici (leaf spot on wheat); settings: 500 ppm, wheat plants, preventive spray, grading 24 days after contamination
Description: Wheat plants (“Scipion” variety), sown in starter cups on a 50/50 peat soil-pozzolana substrate and grown at 22° C., are treated at the 1-leaf stage (10 cm height) by spraying with the active ingredient prepared as described above. Plants, used as controls, are treated with the mixture of acetone/tween/DMSO/water not containing the active material. After 24 hours, the plants are contaminated by spraying the leaves with an aqueous suspension of cryopreserved Septoria tritici spores (500 000 spores per ml). The contaminated wheat plants are incubated for 72 hours at 18° C. and at 100% relative humidity, and then for 21 days at 90% relative humidity. Grading (% of efficacy) is carried out 24 days after the contamination, in comparison with the control plants.

[2] = logP by HPLC on reversed phase columns (EEC directive 79/831 Annex V.A8); type: physicochemical; settings: method [a]: LC-MS at pH 2.7, 0.1% formic acid in water / acetonitrile
Description: Measurement of log P values was performed according EEC directive 79/831 Annex V.A8 by HPLC (High Performance Liquid Chromatography) on reversed phase columns with the following methods: ^[a] Measurement of LC-MS was done at pH 2.7 with 0.1% formic acid in water and with acetonitrile (contains 0.1% formic acid) as eluent with a linear gradient from 10% acetonitrile to 95% acetonitrile. ^[b] Measurement with LC-MS was done at pH 7.8 with 0.001 molar ammonium hydrogen carbonate solution in water as eluent with a linear gradient from 10% acetonitrile to 95% acetonitrile.

Uromyces appendiculatus = assay: In vivo preventive test on Uromyces appendiculatus (bean rust); settings: 500 ppm, bean plants, preventive spray, grading 11 days after contamination
Description: as §1
Bean plants (“Saxa” variety), sown in starter cups on a 50/50 peat soil-pozzolana substrate and grown at 24° C., are treated at the 2-leaf stage (9 cm height) by spraying with the active ingredient prepared as described above. Plants, used as controls, are treated with the mixture of acetone/tween/DMSO/water not containing the active material.
as §2, with “of Uromyces appendiculatus” for “of Puccinia condita”, “spores (150” for “spores (100”, “from” for “from an”, “infected plants” for “infected plant”, “contaminated bean” for “contaminated wheat”
Grading (% of efficacy) is carried out 11 days after the contamination, in comparison with the control plants.

Botrytis cinerea = assay: In vivo preventive test on Botrytis cinerea (grey mould), gherkin plants; settings: 500 ppm, preventive spray, grading 4 to 5 days after contamination
Description: (§4) The active ingredients tested are prepared by homogenization in a mixture of acetone/tween/DMSO and then diluted with water to obtain the desired active material concentration.
(§5) Gherkin plants (“Vert petit de Paris” variety), sown in starter cups on a 50/50 peat soil-pozzolana substrate and grown at 24° C., are treated at the Z11 cotyledon stage by spraying with the active ingredient prepared as described above. Plants, used as controls, are treated with the mixture of acetone/tween/DMSO/water not containing the active material.
After 24 hours, the plants are contaminated by spraying the cotyledons with an aqueous suspension of cryopreserved Botrytis cinerea spores (50 000 spores per ml). The spores are suspended in a nutrient solution composed of 10 g/L of PDB, 50 g/L of D-Fructose, 2 g/L of NH4NO3 and 1 g/L of KH2PO4. The contaminated gherkin plants are incubated at 17° C. and at 90% relative humidity.
Grading (% of efficacy) is carried out 4 to 5 days after the contamination, in comparison with the control plants.

Pyrenophora teres = assay: In vivo preventive test on Pyrenophora teres (net blotch on barley); settings: 500 ppm, barley plants, preventive spray, grading 14 days after contamination
Description: Barley plants (“Plaisant” variety), sown in starter cups on a 50/50 peat soil-pozzolana substrate and grown at 22° C., are treated at the 1-leaf stage (10 cm height) by spraying with the active ingredient prepared as described above. Plants, used as controls, are treated with the mixture of acetone/tween/DMSO/water not containing the active material. After 24 hours, the plants are contaminated by spraying the leaves with an aqueous suspension of Pyrenophora teres spores (12 000 spores per ml). The spores are collected from a 12-day-old culture. The contaminated barley plants are incubated for 48 hours at 20° C. and at 100% relative humidity, and then for 12 days at 20° C. at 70-80% relative humidity. Grading (% of efficacy) is carried out 14 days after the contamination, in comparison with the control plants.

Sphaerotheca fuliginea = assay: In vivo preventive test on Sphaerotheca fuliginea (powdery mildew on cucurbits); settings: 500 ppm, gherkin plants, preventive spray, grading 12 days after contamination
Description: as §4, §5
After 24 hours, the plants are contaminated by spraying the cotyledons with an aqueous suspension of Sphaerotheca fuliginea spores (100 000 spores per ml). The spores are collected from infected plants. The contaminated gherkin plants are incubated at about 20° C. and at 70-80% relative humidity.
as §3

logP [2]	Structure (SMILES)	Eff. % [1]	Eff. % (Phakopsora pachyrhizi)	Eff. % (Puccinia recondita)	Eff. % (Septoria tritici)	Eff. % (Uromyces appendiculatus)	Eff. % (Botrytis cinerea)	Eff. % (Pyrenophora teres)	Eff. % (Sphaerotheca fuliginea)
–	Cn1nc(C(F)F)c(C(=O)Nc2cccc3c2C(C)(C)OC3(C)C)c1F [Example 1]	92%	–	–	–	–	–	–	–
–	Cn1nc(C(F)F)c(C(=O)Nc2cccc3c2C(C)(C)OC3(C)C)c1Cl [Example 2]	86%	96%	–	–	–	–	–	–
3.27[a]	CCC1(CC)OC(C)c2c(NC(=O)c3c(C(F)F)nn(C)c3F)cccc21 (stereo not shown) [Example 13]	–	–	100%	79%	100%	100%	83%	100%
